Laboratory results: patent US9889145B2, “Methods to treat infections” (priority 2013, dated 2018)
Entries after “also recorded” stand apart in the source; their conditions may differ.

How the values were obtained:
B. pseudomallei [1] = type: cell-based, Burkholderia pseudomallei
Arg2 [2] = type: cell-based, mice
NO [3] = type: cell-based, mice
PGE-2 [4] = type: cell-based, murine
[5] = daily maximum dose of 15 mg/kg in mice, cited from earlier work
Arg2 [6] = tested on: Arg2; set-up: species or system mice; conditions: mouse, in vivo, 15 mg/kg
iNOS [7] = type: cell-based, mice; conditions: 4 hours
[8] = tested on: Burkholderia thailandensis (Bt); type: cell-based
NO [9] = type: cell-based, mice; remark: listed apart in the source
iNOS [10] = type: cell-based
B. pseudomallei [11] = type: in vivo, Burkholderia pseudomallei; conditions: n=2
PGE-2 [12] = type: in vivo, mice; conditions: n=2
[13] = tested on: Burkholderia pseudomallei strain 1026b; type: in vivo
CD4+ T-cells = assay: IFN-γ and IL-2 production by stimulated CD4+ T-cells; type: cell-based, mice; conditions: low dose (100 pg/ml) or high dose (10,000 pg/ml) PGE-2; Day 6; vs stimulated
PGE-2 [14] = tested on: PGE-2; set-up: species or system mice; conditions: mouse, in vivo
Arg2 [15] = assay: Arg2 in lung and liver of Bt-infected mice (Western blot, immunohistochemical staining); type: in vivo
IL-1α, IL-6 and KC = IL-1α, IL-6 and KC in the lungs of Bt-infected mice; type: in vivo; conditions: 80 mg/kg Celecoxib vs mock; 48 hours post-infection with Bt
[16] = tested on: BALB/c mice infected with B. thailandensis; conditions: mouse, in vivo
B. thailandensis = tested on: B. thailandensis; set-up: species or system Burkholderia thailandensis; conditions: in vivo
arginase = assay: Quantitative assay for urea in lungs of Bt-infected mice (indirect measurement of Arg activity); type: in vivo; conditions: 80 mg/kg Celecoxib vs mock-treated Bt-infected mice

Q: Which results are given for `CS(=O)(=O)Nc1ccc([N+](=O)[O-])cc1OC1CCCCC1` [NS398, N-[2-(cyclohexyloxy)-4-nitrophenyl]-methanesulfonamide]?
A: Bps intracellular survival (B. pseudomallei [1]): reduction in Bps survival; also recorded: enhanced intracellular killing of B. pseudomallei; Arg2 expression (Arg2 [2]): reduction in Arg2 expression; NO production (nitrite) (NO [3]): higher production of NO; also recorded: increase in nitrite; PGE-2 levels in supernatants (PGE-2 [4]): reduced; lung PGE-2 ([5]; previously documented pharmacological efficacy): reducing lung PGE-2; associated toxicity ([5]; previously documented): without any associated toxicity; Arg2 expression in lungs (Western blot, densitometry) (Arg2 [6]): decreases; iNOS mRNA expression (iNOS [7]): no differences in iNOS mRNA expression; also recorded: did not observe any apparent change in iNOS mRNA expression; survival of intracellular Bt [8]: decrease in survival of intracellular bacteria; NO production (NO [9]): higher production of NO; iNOS expression (iNOS [10]): two-fold increase in iNOS expression; growth of B. pseudomallei in lung tissue (CFU/mg) (B. pseudomallei [11]): suppresses the growth of B. pseudomallei in lung tissue; growth of B. pseudomallei in stomach tissue (CFU/mg) (B. pseudomallei [11]): suppresses the growth of B. pseudomallei in stomach tissue; PGE-2 concentration in lung tissue (PGE-2 [12]): reduce PGE-2 concentration in lung tissue; PGE-2 concentration in stomach tissue (PGE-2 [12]): reduce PGE-2 concentration in stomach tissue; bacteria recovered from the lungs at the study endpoint ([13]; in vivo): No bacteria were recovered; bacteria recovered from the lungs of the two animals euthanized on day 5 and day 7 (hind leg paralysis) ([13]; in vivo): No bacteria were recovered; colonization of spleen and liver ([13]; in vivo): 20-100 cfu; first signs of illness ([13]; in vivo): ≥ 5; lung bacteria of the one exceptional animal at the study endpoint ([13]; in vivo): 104 cfu; weight loss throughout the study ([13]; in vivo): no evidence of weight loss; survival / recovery over 10 days ([13]; n=8): appeared to have recovered from the infection; also recorded: protection against lethal pulmonary melioidosis

Q: Which results are given for `N=C(NO)NCC[C@H](N)C(=O)O` [nor-NOHA, nor-N^ω-hydroxy-L-arginine]?
A: Bps intracellular survival (B. pseudomallei [1]): decrease in B. pseudomallei intracellular survival; NO (nitrite) levels (NO [3]): increase in NO levels; also recorded: increase in nitrite levels; Bt intracellular survival [8]: decrease; NO levels (NO [9]): increase in NO levels

Q: With `CCCCC[C@H](O)/C=C/[C@H]1[C@H](O)CC(=O)[C@@H]1C/C=C\CCCC(=O)O` [PGE-2] as the molecule, how does the “increase in Arg2 expression” value (Arg2 [2]) read?
A: 376 fold

Q: And the “NO (nitrite) levels after adding PGE-2” value (NO [3])?
A: reduced NO levels; also recorded: reduced nitrite levels

Q: And the “iNOS mRNA expression” value (iNOS [7])?
A: no differences in iNOS mRNA expression; also recorded: did not observe any apparent change in iNOS mRNA expression

Q: And the “NO levels after adding PGE-2” value (NO [9])?
A: reduced NO levels

Q: What about the “IFN-gamma production by stimulated CD4+ T-cells” value (CD4+ T-cells) of the same molecule?
A: reduces

Q: And the “IL-2 production by stimulated CD4+ T-cells” value (CD4+ T-cells)?
A: reduces

Q: For `Cc1ccc(-c2cc(C(F)(F)F)nn2-c2ccc(S(N)(=O)=O)cc2)cc1` [Celecoxib, 4-[5-(4-methylphenyl)-3-(trifluoromethyl)pyrazol-1-yl]benzenesulfonamide], which “PGE-2 in the lungs (ELISA)” value (PGE-2 [14]) is on record?
A: PGE-2 reduction

Q: And the “number of Arg2 positively-stained cells in lungs (immunohistochemical staining)” value (Arg2 [15]; 80 mg/kg Celecoxib vs mock-treated Bt-infected mice)?
A: reduction in the number of Arg2 positively-stained cells

Q: What about the “Arg2 in the lungs (Western blot)” value (Arg2 [15]; 80 mg/kg Celecoxib vs mock-treated mice, 48 hours after pulmonary Bt infection) of the same molecule?
A: reduction in Arg2 in the lungs

Q: And the “IL-1α in the lungs” value (IL-1α, IL-6 and KC)?
A: reduced

Q: And the “IL-6 in the lungs” value (IL-1α, IL-6 and KC)?
A: reduced

Q: What about the “KC in the lungs” value (IL-1α, IL-6 and KC) of the same molecule?
A: reduced

Q: And the “lung inflammation (histological examination)” value [16]?
A: reduced

Q: What about the “bacterial burden in liver” value (B. thailandensis) of the same molecule?
A: reduction in bacterial burdens

Q: What about the “bacterial burden in lung” value (B. thailandensis) of the same molecule?
A: reduction in bacterial burdens

Q: What about the “bacterial burden in spleen” value (B. thailandensis) of the same molecule?
A: reduction in bacterial burdens

Q: And the “urea levels in the lungs” value (arginase)?
A: lower
